Experimental data taken from publication PMC9291687.
Several values for one entry are separate records, joined by “and”; a condition that tells them apart may be missing. Equal values may be shown once. Entries after “also recorded” stand apart in the source; their conditions may differ.

How the values were obtained:
colon cancer (HCT-116) = assay: MTT antiproliferative assay, HCT-116; settings: for inhibition at 100 µM / IC50: Homo sapiens; for inhibition at 100 µM: HCT-116, read-out: Growth inhibition (%) HCT-116; for IC50: HCT-116, read-out: IC50 HCT-116; for Cytotoxic activity against HCT-116: MTT
Experimental: (§1) Preliminary screening against the cancer cell lines was performed, using doxorubicin as a reference drug at doses of 100 μM.
(§2) In vitro cytotoxicity was carried out using MTT assay protocol[63] as described in Supplementary data.
(§3) proliferative activity was assessed quantitatively as follows;
(§4) Human cancer cell lines were dropped in 96-well plates at a density of 3-8 × 10^3 cells/well.
(§5) growth medium was exchanged with 0.1 ml of fresh medium containing graded concentrations of the test compounds to be or equal DMSO and incubated for two days. Then 10 μl MTT solution (0.5 mg/ml) was added to each well, and the cells were incubated for additional 4 h. The crystals of MTT-formazan were dissolved in 100 μl of DMSO; the absorbance of each well was measured at 490 nm using an automatic ELISA reader system (TECAN, CHE). The IC50 values were calculated using the nonlinear regression fitting models (Graph Pad, Prism Version 5). The data represented the mean of three independent experiments in triplicate and were expressed as means
(§6) The results were expressed as growth inhibitory concentration (IC50) values and

prostate cancer (PC-3) = assay: MTT antiproliferative assay, PC-3; settings: Homo sapiens; for inhibition at 100 µM: read-out: Growth inhibition (%) PC-3; for IC50: read-out: IC50 PC-3
Experimental: as §1, §2, §3, §4, §5, §6

breast cancer (MCF-7) = assay: MTT antiproliferative assay, MCF-7; settings: Homo sapiens; for inhibition at 100 µM: MCF7, read-out: Growth inhibition (%) MCF-7
Experimental: as §1, §2, §3, §4, §5, §6

lung cancer (A-549) = assay: MTT antiproliferative assay, A-549; settings: Homo sapiens; for inhibition at 100 µM: A549, read-out: Growth inhibition (%) A549; for IC50: A549, read-out: IC50 A-549, MTT, mean of at least three experiments
Experimental: as §1, §2, §3, §4, §5, §6

EGFR^T790M = EGFR^T790M (Homo sapiens, UniProt P00533, T790M); assay: EGFRT790M kinase inhibitory assay (HTRF)
Chain of EGFR^T790M (P00533 25-1210 T790M): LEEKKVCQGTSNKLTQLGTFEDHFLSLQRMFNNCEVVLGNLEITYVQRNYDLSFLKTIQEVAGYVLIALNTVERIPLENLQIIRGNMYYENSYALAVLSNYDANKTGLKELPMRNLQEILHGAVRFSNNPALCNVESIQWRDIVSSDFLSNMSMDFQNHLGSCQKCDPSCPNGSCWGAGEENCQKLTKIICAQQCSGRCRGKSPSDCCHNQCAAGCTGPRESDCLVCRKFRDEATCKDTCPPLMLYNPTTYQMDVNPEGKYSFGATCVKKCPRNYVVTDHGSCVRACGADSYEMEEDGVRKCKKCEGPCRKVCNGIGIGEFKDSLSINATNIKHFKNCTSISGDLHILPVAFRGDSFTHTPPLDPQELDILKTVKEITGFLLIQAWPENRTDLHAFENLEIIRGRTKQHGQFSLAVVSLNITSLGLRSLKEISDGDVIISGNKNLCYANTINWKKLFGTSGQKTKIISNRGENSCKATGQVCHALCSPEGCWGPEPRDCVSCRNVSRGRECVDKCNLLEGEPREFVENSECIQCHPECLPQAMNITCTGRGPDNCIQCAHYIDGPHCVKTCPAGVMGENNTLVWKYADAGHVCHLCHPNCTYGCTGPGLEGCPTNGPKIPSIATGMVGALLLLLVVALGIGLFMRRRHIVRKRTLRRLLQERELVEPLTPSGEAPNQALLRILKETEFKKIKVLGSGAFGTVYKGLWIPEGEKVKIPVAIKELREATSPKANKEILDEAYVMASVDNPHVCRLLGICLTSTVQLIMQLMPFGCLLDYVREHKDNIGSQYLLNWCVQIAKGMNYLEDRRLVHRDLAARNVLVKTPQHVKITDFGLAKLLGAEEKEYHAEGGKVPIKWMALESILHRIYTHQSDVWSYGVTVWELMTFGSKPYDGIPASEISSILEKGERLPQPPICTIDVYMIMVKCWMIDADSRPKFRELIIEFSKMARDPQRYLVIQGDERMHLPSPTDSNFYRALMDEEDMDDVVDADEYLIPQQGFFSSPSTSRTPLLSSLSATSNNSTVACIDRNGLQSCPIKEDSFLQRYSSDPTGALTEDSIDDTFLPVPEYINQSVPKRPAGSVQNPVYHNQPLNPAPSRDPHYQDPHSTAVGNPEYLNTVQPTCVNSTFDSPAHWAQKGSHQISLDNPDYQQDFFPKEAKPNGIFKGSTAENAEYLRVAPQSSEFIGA
Experimental: (§7) In vitro EGFR inhibitory activity was assessed using Homogeneous time-resolved fluorescence (HTRF) assay[64] as described in Supplementary data.
(§8) The IC50 values were calculated using the nonlinear regression fitting models (Graph Pad, Prism Version 5).
(§9) EGFRWT and EGFRT790M kinase inhibitory assay
(§10) Homogeneous time resolved fluorescence (HTRF) assay was applied in this test.
(§11) EGFRWT, EGFRT790M (Sigma). firstly, the EGFRWT and/or EGFRT790M and their substrates were incubated with the tested compounds in enzymatic buffer for 5 min.
(§12) into the reaction mixture to allow starting the enzymatic reaction. The assay was conducted for 30 min at room temperature. The reaction was stopped by addition of detection reagents which contain
(§13) GraphPad Prism 5.0. Three independent experiments were performed for each concentration.

EGFR^WT = EGFR^WT (Homo sapiens, UniProt P00533); assay: EGFRWT kinase inhibitory assay (HTRF)
Chain of EGFR^WT (P00533 25-1210): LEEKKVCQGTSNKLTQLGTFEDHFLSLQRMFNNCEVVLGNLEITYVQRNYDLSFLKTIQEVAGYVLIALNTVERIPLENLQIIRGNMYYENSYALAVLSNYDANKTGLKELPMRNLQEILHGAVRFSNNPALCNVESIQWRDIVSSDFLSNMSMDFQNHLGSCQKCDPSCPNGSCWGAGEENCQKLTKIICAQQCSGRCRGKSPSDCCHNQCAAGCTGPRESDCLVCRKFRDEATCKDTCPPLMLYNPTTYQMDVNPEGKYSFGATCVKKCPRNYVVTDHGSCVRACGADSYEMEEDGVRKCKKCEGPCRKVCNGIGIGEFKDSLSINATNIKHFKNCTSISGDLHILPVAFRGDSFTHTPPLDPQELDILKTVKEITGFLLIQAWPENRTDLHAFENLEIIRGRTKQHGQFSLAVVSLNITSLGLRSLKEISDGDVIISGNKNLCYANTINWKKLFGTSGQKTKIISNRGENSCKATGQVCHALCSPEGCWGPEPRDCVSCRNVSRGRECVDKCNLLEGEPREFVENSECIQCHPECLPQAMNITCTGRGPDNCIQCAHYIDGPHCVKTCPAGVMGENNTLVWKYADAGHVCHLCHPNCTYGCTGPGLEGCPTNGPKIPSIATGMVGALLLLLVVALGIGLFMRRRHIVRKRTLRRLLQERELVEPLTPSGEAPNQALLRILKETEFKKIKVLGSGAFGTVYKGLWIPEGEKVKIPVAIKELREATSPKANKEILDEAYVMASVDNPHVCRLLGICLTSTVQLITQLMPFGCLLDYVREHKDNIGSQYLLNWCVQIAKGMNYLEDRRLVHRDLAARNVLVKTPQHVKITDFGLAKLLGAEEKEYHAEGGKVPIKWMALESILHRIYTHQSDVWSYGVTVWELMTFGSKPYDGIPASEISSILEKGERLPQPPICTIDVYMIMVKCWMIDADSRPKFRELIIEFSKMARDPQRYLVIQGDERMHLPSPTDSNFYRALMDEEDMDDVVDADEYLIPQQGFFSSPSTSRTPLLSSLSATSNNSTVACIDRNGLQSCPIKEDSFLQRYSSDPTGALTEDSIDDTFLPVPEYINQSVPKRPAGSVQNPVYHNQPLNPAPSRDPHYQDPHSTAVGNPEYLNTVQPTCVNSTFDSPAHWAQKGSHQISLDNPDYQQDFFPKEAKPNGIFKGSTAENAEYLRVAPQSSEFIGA
Experimental: as §7, §8, §9, §10, §11, §12, §13

PC-3 cells [1] = assay: Cell cycle analysis by flow cytometry (PI staining); format: cell-based, human
caspase-3 in PC-3 cells = assay: Caspase-3 determination (ELISA); format: cell-based, human
PC-3 cells [2] = assay: Annexin V-FITC/PI apoptosis assay; format: cell-based, human; settings: PC-3, 7.98 µM, 24 h
Experimental: The results were depicted in (Figure 6 and Supplementary data).
The effect of compound 8a on cell apoptosis was investigated as described in Supplementary data[76–78].
4.1.3. Annexin V-FITC apoptosis assay.
To detect the apoptosis induced by compound 8a, PC-3 cells were seeded and incubated overnight […]
the negative control. After that, the cells were collected and washed with PBS two successive times. The cells were exposed to centrifugation. Apoptosis detection kit (BD Biosciences, San Jose, CA) was used in this test. According to the manufacturer's protocol the cells were stained by Annexin V-FITC and propidium iodide (PI) in the binding buffer for 20min at room temperature in the dark. Using a flow cytometer, Annexin V-FITC and PI binding were analyzed. flowjo software was used to analyze the frequencies in all quadrants.
Cell cycle distribution (%)

With `COc1ccc(-c2cc(-c3ccc(C)cc3)nc3nc4[nH]c5ccccc5c(=O)n4c(=O)c23)cc1` [Compound 8b, 4–(4-Methoxyphenyl)-2-(p-tolyl)-5H-pyrido[2',3':4,5] pyrimido[2,1-b] quinazoline-5,7(12H)-dione] as the compound, how does the melting point read?
The melting point was greater than 300 °C.

What about the inhibition at 100 µM (colon cancer (HCT-116)) of the same compound?
The inhibition at 100 µM was 67%.

And the IC50 (colon cancer (HCT-116))?
Its IC50 is 26 ± 1.3 µM.

And the “Cytotoxic activity against HCT-116” value (colon cancer (HCT-116))?
Its value is “mild cytotoxic activity”.

What about the inhibition at 100 µM (prostate cancer (PC-3)) of the same compound?
The inhibition at 100 µM was 96%.

And the IC50 (prostate cancer (PC-3))?
Its IC50 is 18 ± 2.3 µM.

What about the inhibition at 100 µM (breast cancer (MCF-7)) of the same compound?
Its inhibition at 100 µM is 9%.

And the inhibition at 100 µM (lung cancer (A-549))?
The inhibition at 100 µM was 94%.

What about the IC50 (lung cancer (A-549)) of the same compound?
The IC50 was 16 µM.

And the IC50 (EGFR^T790M)?
The IC50 was 0.29 µM.

With `NNc1nc2nc(-c3ccc(Cl)cc3)cc(-c3ccc(Cl)cc3Cl)c2c(=O)[nH]1` [Compound 9a, 7-(4-Chlorophenyl)-5–(2,4-dichlorophenyl)-2-hydrazineylpyrido[2,3-d]pyrimidin-4(3H)-one] as the compound, how does the melting point read?
Its melting point is 265 to 267 °C.

And the inhibition at 100 µM (colon cancer (HCT-116))?
The inhibition at 100 µM was 89%.

What about the IC50 (EGFR^WT) of the same compound?
The IC50 was 0.594 ± 0.042 µM.

And the inhibition at 100 µM (prostate cancer (PC-3))?
Its inhibition at 100 µM is 90%.

And the IC50 (prostate cancer (PC-3))?
Its IC50 is 9.26 ± 2.4 µM.

What about the inhibition at 100 µM (breast cancer (MCF-7)) of the same compound?
The inhibition at 100 µM was 68%.

What about the IC50 (breast cancer (MCF-7); MCF7, read-out: IC50 MCF-7) of the same compound?
Its IC50 is 42 ± 1.2 µM.

And the inhibition at 100 µM (lung cancer (A-549))?
Its inhibition at 100 µM is 42%.

And the IC50 (EGFR^T790M)?
Its IC50 is 0.571 ± 0.046 µM.

What does the source list for `Cc1ccc(-c2cc(-c3ccc(Cl)cc3)nc3nc4[nH]c5ccccc5c(=O)n4c(=O)c23)cc1` [Compound 8a, 2–(4-Chlorophenyl)-4-(p-tolyl)-5H-pyrido[2',3':4,5]pyrimido [2,1-b] quinazoline-5,7(12H)-dione]?
Increase of cell population at %S vs control (PC-3 cells [1]; PC-3, 7.98 µM, 24 h): 1.3 folds; Increase of cell population at pre-G1 vs control (PC-3 cells [1]; PC-3, 7.98 µM, 24 h): 22 folds; Cell cycle distribution %Pre-G1 (PC-3 cells [1]; PC-3, 7.98 µM, 24 h, control 1.78%): 41.06%; Cell cycle distribution %G2-M (PC-3 cells [1]; PC-3, 7.98 µM, 24 h, control 9.75%): 4.93%; Cell cycle distribution %S (PC-3 cells [1]; PC-3, 7.98 µM, 24 h, control 41.03%): 53.69%; Cell cycle distribution %G0-G1 (PC-3 cells [1]; PC-3, 7.98 µM, 24 h, control 49.22%): 41.38%; Cell cycle arrest phase (PC-3 cells [1]; PC-3 cells): arrested the cell cycle at pre-G1 phase; also recorded: arrest the PC-3 cell line at pre-G1; also recorded: arrested the cell cycle at the pre-G1 phase; Increase in caspase-3 level vs control cells (caspase-3 in PC-3 cells; 24 h): 5.3 fold; Caspase-3 level (caspase-3 in PC-3 cells; 24 h treatment, 8a at 3.04 µM, control 84.24, mean ± SEM): 452.3 pg/mL and 452.3 ± 10.5 pg/mL; inhibition at 100 µM (colon cancer (HCT-116)): 84%; IC50 (colon cancer (HCT-116)): 25.6 ± 1.3 µM; Cytotoxic activity against HCT-116 (colon cancer (HCT-116)): mild cytotoxic activity; IC50 (EGFR^WT): 0.099 ± 0.007 µM; inhibition at 100 µM (prostate cancer (PC-3)): 98%; IC50 (prostate cancer (PC-3)): 7.98 ± 2.4 µM; inhibition at 100 µM (breast cancer (MCF-7)): 32%; inhibition at 100 µM (lung cancer (A-549)): 90%; IC50 (lung cancer (A-549)): 16.2 ± 2.4 µM; Increase in early apoptosis ratio vs control (PC-3 cells [2]): 32 fold; Increase in late apoptosis ratio vs control (PC-3 cells [2]): 150 fold; Late apoptosis (PC-3 cells [2]; control 0.15%): 22.49%; Early apoptosis (PC-3 cells [2]; control 0.43%): 13.92%; Necrosis (PC-3 cells [2]; control 1.20): 4.65%; Total apoptosis (PC-3 cells [2]; control 1.78): 41.06%; IC50 (EGFR^T790M): 0.123 ± 0.01 µM

With `COc1cc(-c2cc(-c3ccc(C)cc3)nc3nc4[nH]c5ccccc5c(=O)n4c(=O)c23)cc(OC)c1OC` [Compound 8d, 2-(p-Tolyl)-4–(3,4,5-trimethoxyphenyl)-5H-pyrido[2',3':4,5] pyrimido[2,1-b]quinazoline-5,7(12H)-dione] as the compound, how does the melting point read?
The melting point was greater than 300 °C.

And the inhibition at 100 µM (colon cancer (HCT-116))?
The inhibition at 100 µM was 78%.

And the IC50 (colon cancer (HCT-116))?
The IC50 was 70.2 ± 2 µM.

What about the “Cytotoxic activity against HCT-116” value (colon cancer (HCT-116)) of the same compound?
Its value is “mild cytotoxic activity”.

And the IC50 (EGFR^WT)?
Its IC50 is 0.419 ± 0.029 µM.

What about the inhibition at 100 µM (prostate cancer (PC-3)) of the same compound?
Its inhibition at 100 µM is 95%.

What about the IC50 (prostate cancer (PC-3)) of the same compound?
Its IC50 is 7.12 ± 2 µM.

What about the inhibition at 100 µM (breast cancer (MCF-7)) of the same compound?
The inhibition at 100 µM was 15%.

And the inhibition at 100 µM (lung cancer (A-549))?
Its inhibition at 100 µM is 97%.

And the IC50 (lung cancer (A-549))?
The IC50 was 7.23 ± 2.1 µM.

And the IC50 (EGFR^T790M)?
Its IC50 is 0.29 ± 0.023 µM.
